Measured values: article PMC3898987 (Bioorganic & Medicinal Chemistry, 2013)
Positions count from the first letter of the chain named.

Key:
5-HT3A receptor D165A [1] = molecular target: T1, 5-HT3A receptor D165A (Homo sapiens, UniProt P46098, D160A); test: cell-based
T1 sequence (P46098 24-478 D160A): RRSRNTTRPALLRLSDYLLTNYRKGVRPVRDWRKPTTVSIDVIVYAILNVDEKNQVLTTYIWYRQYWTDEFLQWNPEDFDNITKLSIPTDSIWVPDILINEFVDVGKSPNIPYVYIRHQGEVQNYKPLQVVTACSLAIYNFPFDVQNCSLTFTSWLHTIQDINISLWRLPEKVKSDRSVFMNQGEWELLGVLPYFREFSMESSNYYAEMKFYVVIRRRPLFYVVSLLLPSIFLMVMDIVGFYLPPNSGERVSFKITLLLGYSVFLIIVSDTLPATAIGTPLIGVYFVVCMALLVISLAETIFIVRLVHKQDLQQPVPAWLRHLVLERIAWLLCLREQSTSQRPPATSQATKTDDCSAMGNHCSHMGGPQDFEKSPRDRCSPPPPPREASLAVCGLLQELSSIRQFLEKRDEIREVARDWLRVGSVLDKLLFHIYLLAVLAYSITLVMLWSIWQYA

5-HT3A receptor S163T = molecular target: T2, 5-HT3A receptor S163T (Homo sapiens, UniProt P46098, S158T); test: FlexStation membrane potential dye functional assay, HEK293 cells; format: cell-based; design: expressed in transfected cells; host or cells: HEK293; details: inhibition of 5-HT (EC50 concentration) response, 45 min preincubation, 5-HT3A S163T
T2 sequence (P46098 24-478 S158T): T1 sequence (P46098 24-478 D160A) with S135T, A137D
Procedure: For FlexStation assays, transfected cells were plated on 96-well plates and incubated 1–2 days before assay.
Fluorometric studies were undertaken using a FlexStation® (Molecular Devices, Sunnyvale, CA, USA) as previously described.[11]
Fluorescence was measured every 2 s for 200 s. […] Concentration–response and inhibition curves were obtained for each mutant, and the fluorescence values were normalized to the maximal response.

5-HT3A receptor D165A [2] = molecular target: T1, 5-HT3A receptor D165A; test: radioligand saturation binding, transfected HEK293 membranes; details: [3H]-palonosetron saturation, 5-HT3A D165A, 4 °C, 24 h
Procedure: Human embryonic kidney (HEK) 293 cells were cultured on 90 mm tissue culture plates at 37 °C and 7% CO2 in a humidified atmosphere. They were grown in DMEM:F12 (Dulbecco’s Modified Eagle’s Medium/Nutrient Mix F12 (1:1)) with GlutaMAX I™ containing 10% fetal calf serum and passaged when confluent. For radioligand binding studies, cells in 90 mm dishes were transfected at 60–70% confluency using polyethyleneimine and incubated for 3–4 days before use. For FlexStation assays, transfected cells were plated on 96-well plates and incubated 1–2 days before assay. […]
Eight-point binding assays were performed to produce saturation binding curves. […] Radioactive counts were measured using a Beckman LS6000SC liquid scintillation counter (Fullerton, California, USA).
Data were analyzed by iterative curve fitting using GraphPad Prism v5 (San Diego, CA) according to the following equation: B=Bmax[L]^n/kdn+[L]^n where B is the amount of bound radioligand, Bmax is the maximum specific binding at equilibrium, [L] is the concentration of radioligand, Kd is the equilibrium dissociation constant of the radioligand, and n is the Hill coefficient.

O=C1c2cccc3c2[C@H](CCC3)CN1[C@@H]1CN2CCC1CC2 [Palonosetron]
IC50 (5-HT3A receptor D165A [1]): 1.33 ± 0.45 nM | IC50 (5-HT3A receptor S163T): 1.02 ± 0.19 nM | Kd (5-HT3A receptor D165A [2]): 0.3 ± 0.08 nM
